Test results: publication PMC6328288 (Journal of Medicinal Chemistry, 2018)
Each block holds one compound with its values, some of them ahead of it.

Assays:
human CCR1 [1] = target: T1, human CCR1 (Homo sapiens, UniProt P32246); test: [3H]-CCR2-RA-[R] displacement binding assay on U2OS-CCR1 membranes; details: for displacement of [3H]-CCR2-RA-[R] from CCR1 (in words): concentration-dependent
T1 sequence (P32246 1-355): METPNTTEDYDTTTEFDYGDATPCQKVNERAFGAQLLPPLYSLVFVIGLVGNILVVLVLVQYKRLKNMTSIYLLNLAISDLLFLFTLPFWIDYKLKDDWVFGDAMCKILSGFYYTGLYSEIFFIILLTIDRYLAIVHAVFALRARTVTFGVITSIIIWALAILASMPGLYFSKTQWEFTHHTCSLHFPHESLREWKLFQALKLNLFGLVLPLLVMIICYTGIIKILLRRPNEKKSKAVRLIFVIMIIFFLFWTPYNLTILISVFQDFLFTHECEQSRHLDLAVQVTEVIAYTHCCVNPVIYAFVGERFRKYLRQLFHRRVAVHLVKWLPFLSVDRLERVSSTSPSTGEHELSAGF

human CCR2 [2] = target: T2, human CCR2 (Homo sapiens, UniProt P41597); test: [3H]-CCR2-RA-[R] displacement binding assay on U2OS-CCR2 membranes; details: for displacement at 1 μM (%) / pKi ± SEM: CCR2; for displacement at 1 μM (%): [3H]-CCR2-RA-[R] displacement by 1 μM compound, mean of two experiments; for pKi ± SEM: [3H]-CCR2-RA-[R] binding, U2OS membranes, 25 °C
T2 sequence (P41597 1-360 isoform P41597-2): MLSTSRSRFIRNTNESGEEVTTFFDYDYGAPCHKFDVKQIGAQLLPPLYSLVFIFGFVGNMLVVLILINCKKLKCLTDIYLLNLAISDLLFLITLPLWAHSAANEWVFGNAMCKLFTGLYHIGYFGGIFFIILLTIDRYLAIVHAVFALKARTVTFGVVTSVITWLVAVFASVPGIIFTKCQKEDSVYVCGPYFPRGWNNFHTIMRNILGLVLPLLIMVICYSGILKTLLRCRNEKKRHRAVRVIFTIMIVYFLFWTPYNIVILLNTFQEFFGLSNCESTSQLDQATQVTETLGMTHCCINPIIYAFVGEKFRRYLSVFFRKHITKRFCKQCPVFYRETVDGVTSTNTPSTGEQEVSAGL

human CCR1 [3] = target: T1, human CCR1; test: [35S]GTPγS binding assay on U2OS-CCR1 membranes; assay type: biochemical; details: for Hill slope, CCR1: CCL3-induced, 8 nM CCL3
human CCR2 [4] = target: T2, human CCR2; test: [35S]GTPγS binding assay on U2OS-CCR2 membranes; assay type: biochemical; details: for Hill slope, CCR2: CCL2-induced, 20 nM CCL2
human CCR1 [5] = target: T1, human CCR1; test: Inhibition of basal [35S]GTPγS binding in absence of CCL3 in U2OS-CCR1; assay type: biochemical; details: for fold higher potency as inverse agonist than as antagonist: CCR1, absence versus presence of CCL3; for fold difference between functional and binding assays: CCR1, [35S]GTPγS potency (absence or presence of CCL3) versus binding affinity
[6] = CCR1, [3H]-CCR2-RA-[R] binding, U2OS membranes, 25 °C

Compound: C[C@@H]1CN(Cc2ccc(F)cc2)CCN1C(=O)COc1ccc(Cl)cc1NC(N)=O [BX471]
[3H]-CCR2-RA-[R] specific binding in presence of compound (absence = 100%) (human CCR1 [1]; 10 μM BX471, 6 nM radioligand, U2OS-CCR1): 116 ± 2%
[3H]-CCR2-RA-[R] binding enhanced up to (human CCR1 [1]; U2OS-CCR1, increasing concentrations): up to 120%
displacement of [3H]-CCR2-RA-[R] from CCR1 (in words) (human CCR1 [1]; U2OS-CCR1): not able to displace

Compound: CC(=O)C1=C(O)C(=O)N(c2ccc(C)cc2)C1c1ccc(C)cc1 (stereo not shown) [Compound 10, 4-Acetyl-3-hydroxy-5-(4-methylphenyl)-1-(4-methylphenyl)-1,5-dihydro-2H-pyrrol-2-one]
displacement at 1 μM (%) (human CCR2 [2]): 36% (42, 31)

Compound: COc1ccc(C2C(C(C)=O)=C(O)C(=O)N2c2ccc(C)cc2)cc1 (stereo not shown) [Compound 11, 4-Acetyl-3-hydroxy-5-(4-methoxyphenyl)-1-(4-methylphenyl)-1,5-dihydro-2H-pyrrol-2-one]
displacement at 1 μM (%) (human CCR2 [2]): 5% (5, 5)

Compound: COc1cccc(C2C(C(C)=O)=C(O)C(=O)N2c2ccc(C)cc2)c1 (stereo not shown) [Compound 15, 4-Acetyl-3-hydroxy-5-(3-methoxyphenyl)-1-(4-methylphenyl)-1,5-dihydro-2H-pyrrol-2-one]
displacement at 1 μM (%) (human CCR2 [2]): 0% (3, −3)

Compound: Cc1ccc(N2C(=O)C(O)=C(C(=O)C3CC3)C2C2CCCCC2)cc1 (stereo not shown) [Compound 22, 5-Cyclohexyl-4-(cyclopropanecarbonyl)-3-hydroxy-1-(4-methylphenyl)-1,5-dihydro-2H-pyrrol-2-one]
selectivity for CCR1 over CCR2 (human CCR1 [1]; from binding affinities): 8 fold

Compound: CCOC(=O)C1=C(O)C(=O)N(c2ccc(C)cc2)C1C1CCCCC1 (stereo not shown) [Compound 24, Ethyl 2-Cyclohexyl-4-hydroxy-5-oxo-1-(4-methylphenyl)-2,5-dihydro-1H-pyrrole-3-carboxylate]
displacement at 1 μM (%) (human CCR2 [2]): 31% (36, 26)

Compound: CC(=O)C1=C(O)C(=O)N(c2ccc(Br)cc2F)C1C1CCCCC1 (stereo not shown) [Compound 39, 4-Acetyl-1-(4-bromo-2-fluorophenyl)-5-cyclohexyl-3-hydroxy-1,5-dihydro-2H-pyrrol-2-one]
Hill slope, CCR1 (human CCR1 [3]): –0.62 ± 0.05
Hill slope, CCR2 (human CCR2 [4]): –0.94 ± 0.18
fold higher potency as inverse agonist than as antagonist (human CCR1 [5]): 3 fold

Compound: CC(=O)C1=C(O)C(=O)N(c2ccc(C)c(C)c2)C1C1CCCCC1 (stereo not shown) [Compound 40, 4-Acetyl-5-cyclohexyl-1-(3,4-dimethylphenyl)-3-hydroxy-1,5-dihydro-2H-pyrrol-2-one]
pKi ± SEM (human CCR1 [1]; [6]): 7.37 ± 0.03
pKi ± SEM (human CCR2 [2]): 7.75 ± 0.02

Compound: O=C(C1=C(O)C(=O)N(c2ccc(Br)cc2F)C1C1CCCCC1)C1CC1 (stereo not shown) [Compound 43, 1-(4-Bromo-2-fluorophenyl)-5-cyclohexyl-4-(cyclopropanecarbonyl)-3-hydroxy-1,5-dihydro-2H-pyrrol-2-one]
Hill slope, CCR1 (human CCR1 [3]): –0.73 ± 0.02
Hill slope, CCR2 (human CCR2 [4]): –0.80 ± 0.13
fold difference between functional and binding assays (human CCR1 [5]): more than 130 fold
pKi ± SEM (human CCR2 [2]): 7.82 ± 0.04

Compound: COC(=O)c1c(-c2ccno2)[nH]c(=S)n1CCCc1ccc(F)c(F)c1 [JNJ-27141491, (S)-3-[3,4-difluorophenyl)-propyl]-5-isoxazol-5-yl-2-thioxo-2,3-dihydro-1H-imidazole-4-carboxyl acid methyl ester]
Ki (human CCR1 [1]; [6]): 138 nM
pKi ± SEM (human CCR1 [1]; [6]): 6.9 ± 0.06
displacement of [3H]-CCR2-RA-[R] from CCR1 (in words) (human CCR1 [1]; U2OS-CCR1): fully displaced

Compound: CCL2: chemokine ligand activating CCR2, purchased from PeproTech
pEC50, stimulation of [35S]GTPγS binding (human CCR2 [4]; U2OS-CCR2): 8.3 ± 0.09
EC50 (human CCR2 [4]; read-out: potency, stimulation of [35S]GTPγS binding, U2OS-CCR2): 5 nM

Compound: CCL3: chemokine ligand activating CCR1, purchased from PeproTech
pEC50, stimulation of [35S]GTPγS binding (human CCR1 [3]; U2OS-CCR1): 8.9 ± 0.06
EC50 (human CCR1 [3]; read-out: potency, stimulation of [35S]GTPγS binding, U2OS-CCR1): 1.3 nM

The next lines start with the values.

displacement at 1 μM (%) (human CCR2 [2]): 11% (14, 8)
Compound: CC(=O)C1=C(O)C(=O)N(c2ccc(C)cc2)C1c1cccc(C)c1 (stereo not shown) [Compound 14, 4-Acetyl-3-hydroxy-5-(3-methylphenyl)-1-(4-methylphenyl)-1,5-dihydro-2H-pyrrol-2-one]

pKi ± SEM (human CCR1 [1]; [6]): 7.52 ± 0.01
Compound: CCC(=O)C1=C(O)C(=O)N(c2ccc(C)cc2)C1C1CCCCC1 (stereo not shown) [Compound 18, 5-Cyclohexyl-3-hydroxy-4-propionyl-1-(4-methylphenyl)-1,5-dihydro-2H-pyrrol-2-one]

Ki (human CCR2 [2]): ~20 nM
pKi ± SEM (human CCR2 [2]): 7.73 ± 0.08
Compound: CC(=O)C1=C(O)C(=O)N(c2ccc(Cl)cc2)C1C1CCCCC1 (stereo not shown) [Compound 30, 4-Acetyl-1-(4-chlorophenyl)-5-cyclohexyl-3-hydroxy-1,5-dihydro-2H-pyrrol-2-one]

Ki (human CCR2 [2]): ~20 nM
Compound: CC(=O)C1=C(O)C(=O)N(c2ccc(Br)cc2)C1C1CCCCC1 (stereo not shown) [Compound 31, 4-Acetyl-1-(4-bromophenyl)-5-cyclohexyl-3-hydroxy-1,5-dihydro-2H-pyrrol-2-one]

Hill slope, CCR1 (human CCR1 [3]): –0.72 ± 0.08
Hill slope, CCR2 (human CCR2 [4]): –0.88 ± 0.13
fold higher potency as inverse agonist than as antagonist (human CCR1 [5]): ~10 fold
Compound: CC(=O)C1=C(O)C(=O)N(c2ccc(Cl)c(C)c2)C1C1CCCCC1 (stereo not shown) [Compound 41, 4-Acetyl-1-(4-chloro-3-methylphenyl)-5-cyclohexyl-3-hydroxy-1,5-dihydro-2H-pyrrol-2-one]

pKi ± SEM (human CCR1 [1]; [6]): 7.56 ± 0.04
Compound: O=C(C1=C(O)C(=O)N(c2ccc(Br)cc2F)C1C1CCCCC1)c1ccccc1 (stereo not shown) [Compound 44, 4-Benzoyl-1-(4-bromo-2-fluorophenyl)-5-cyclohexyl-3-hydroxy-1,5-dihydro-2H-pyrrol-2-one]

Hill slope, CCR1 (human CCR1 [3]): –0.93 ± 0.01
Hill slope, CCR2 (human CCR2 [4]): –1.20 ± 0.08
fold difference between functional and binding assays (human CCR1 [5]): more than 130 fold
Compound: O=C(C1=C(O)C(=O)N(c2ccc(Br)cc2F)C1c1cccc(Br)c1)C1CC1 (stereo not shown) [Compound 45, 1-(4-Bromo-2-fluorophenyl)-5-(3-bromophenyl)-4-(cyclopropanecarbonyl)-3-hydroxy-1,5-dihydro-2H-pyrrol-2-one]

pKi ± SEM (human CCR1 [1]; [6]): 7.19 ± 0.02
Compound: CC(=O)C1=C(O)C(=O)N(c2ccc(Br)cc2F)C1c1cccc(Br)c1 (stereo not shown) [Compound 46, 4-Acetyl-1-(4-bromo-2-fluorophenyl)-5-(3-bromophenyl)-3-hydroxy-1,5-dihydro-2H-pyrrol-2-one]
